Key:
[1] = DRUGMATRIX: ATPase, Na+/K+ enzyme inhibition (substrate: ATP); assay type: tissue-based, Sus scrofa, Heart; details: Not Active = under 50% inhibition at 10 µM
[2] = DRUGMATRIX: beta-Lactamase enzyme inhibition (substrate: Nitrocefin); set-up: species or system Bacillus cereus; details: Not Active = under 50% inhibition at 10 µM
[3] = DRUGMATRIX: Calcium Channel Type L, Dihydropyridine radioligand binding (ligand: [3H] Nitrendipine); assay type: cell membranes, Rattus norvegicus, Wistar, Cerebral cortex, Membrane; details: Not Active = under 50% inhibition at 10 µM
Substance-P receptor = Substance-P receptor (Homo sapiens, UniProt P25103); assay type: cell membranes, CHO, Membrane; details: cho; further: in other assays of this panel Not Active means under 50% inhibition at 10 µM
Cannabinoid receptor 1 = Cannabinoid receptor 1 (Homo sapiens, UniProt P21554); assay type: cell membranes, Membrane; details: chem-1; further: in other assays of this panel Not Active means under 50% inhibition at 10 µM
D(3) dopamine receptor = D(3) dopamine receptor (Homo sapiens, UniProt P35462); assay: DRUGMATRIX: Dopamine D3 radioligand binding (ligand: [3H] Spiperone); assay type: cell membranes, CHO, Membrane; details: cho
Insulin receptor = Insulin receptor (Rattus norvegicus, UniProt P15127); assay type: cell membranes, Wistar, Liver, Membrane; further: in other assays of this panel Not Active means under 50% inhibition at 10 µM
Melanocortin receptor 4 = Melanocortin receptor 4 (Homo sapiens, UniProt P32245); assay type: cell membranes, Membrane; details: hek293; further: in other assays of this panel Not Active means under 50% inhibition at 10 µM
[4] = molecular target: T1, Neuropeptide Y receptor type 2 (Homo sapiens, UniProt P49146); assay type: cell membranes, Membrane; details: kan-ts; further: in other assays of this panel Not Active means under 50% inhibition at 10 µM
T1 sequence (P49146 whole entry): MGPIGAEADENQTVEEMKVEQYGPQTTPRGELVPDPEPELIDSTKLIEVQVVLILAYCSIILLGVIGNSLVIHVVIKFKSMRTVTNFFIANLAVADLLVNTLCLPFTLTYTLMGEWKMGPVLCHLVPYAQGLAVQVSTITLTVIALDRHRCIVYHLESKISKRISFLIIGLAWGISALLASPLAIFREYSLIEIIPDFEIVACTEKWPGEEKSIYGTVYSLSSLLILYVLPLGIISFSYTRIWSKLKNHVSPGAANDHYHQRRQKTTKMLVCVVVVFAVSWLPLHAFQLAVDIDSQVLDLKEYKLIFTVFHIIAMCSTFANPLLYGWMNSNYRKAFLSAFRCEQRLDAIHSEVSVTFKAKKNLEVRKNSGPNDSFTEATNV

[5] = DRUGMATRIX: Phosphodiesterase PDE4 enzyme inhibition (substrate: [3H]cAMP + cAMP); details: u-937; Not Active = under 50% inhibition at 10 µM
[6] = DRUGMATRIX: Potassium Channel [KATP] radioligand binding (ligand: [3H] Glyburide); assay type: cell membranes, Membrane; details: hit-t15; Not Active = under 50% inhibition at 10 µM
[7] = molecular target: Matrix metalloproteinase-9 (Homo sapiens, UniProt P14780); assay type: cell-based
Acetylcholinesterase = Acetylcholinesterase (Homo sapiens, UniProt P22303); assay: DRUGMATRIX: Acetylcholinesterase enzyme inhibition (substrate: acetylthiocholine); assay type: cell-based, HEK293; details: hek293; Not Active = under 50% inhibition at 10 µM
Adenosine receptor A3 = molecular target: T2, Adenosine receptor A3 (Homo sapiens, UniProt P0DMS8); assay type: cell membranes, CHO-K1, Membrane; details: cho-k1
T2 sequence (P0DMS8 whole entry): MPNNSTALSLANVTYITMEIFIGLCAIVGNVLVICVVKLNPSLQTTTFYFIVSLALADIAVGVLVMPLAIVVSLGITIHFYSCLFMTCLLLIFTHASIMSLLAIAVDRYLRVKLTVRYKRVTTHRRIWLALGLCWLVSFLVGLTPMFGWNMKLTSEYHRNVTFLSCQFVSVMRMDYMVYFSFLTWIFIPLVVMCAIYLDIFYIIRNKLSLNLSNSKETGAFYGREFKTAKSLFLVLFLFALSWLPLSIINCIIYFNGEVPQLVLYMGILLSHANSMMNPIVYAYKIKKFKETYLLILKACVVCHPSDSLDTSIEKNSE

Cytochrome P450 3A4 = Cytochrome P450 3A4 (Homo sapiens, UniProt P08684); details: bti-tn-5b1-4; further: in other assays of this panel Not Active means under 50% inhibition at 10 µM
Cytochrome P450 3A4, sequence (P08684 whole entry): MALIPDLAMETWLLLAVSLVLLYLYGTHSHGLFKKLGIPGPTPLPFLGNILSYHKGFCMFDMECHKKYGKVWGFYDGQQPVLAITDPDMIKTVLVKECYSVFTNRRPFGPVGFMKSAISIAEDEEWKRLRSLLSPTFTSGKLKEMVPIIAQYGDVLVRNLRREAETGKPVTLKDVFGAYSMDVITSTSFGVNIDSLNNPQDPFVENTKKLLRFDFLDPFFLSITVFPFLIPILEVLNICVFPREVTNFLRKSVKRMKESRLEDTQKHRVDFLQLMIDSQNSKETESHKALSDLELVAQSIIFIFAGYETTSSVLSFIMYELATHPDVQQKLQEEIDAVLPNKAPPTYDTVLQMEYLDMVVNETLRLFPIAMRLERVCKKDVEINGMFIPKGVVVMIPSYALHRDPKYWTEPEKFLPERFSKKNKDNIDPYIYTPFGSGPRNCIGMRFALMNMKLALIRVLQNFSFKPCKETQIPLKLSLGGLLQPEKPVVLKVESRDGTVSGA

Matrix metalloproteinase-9, sequence (P14780 whole entry): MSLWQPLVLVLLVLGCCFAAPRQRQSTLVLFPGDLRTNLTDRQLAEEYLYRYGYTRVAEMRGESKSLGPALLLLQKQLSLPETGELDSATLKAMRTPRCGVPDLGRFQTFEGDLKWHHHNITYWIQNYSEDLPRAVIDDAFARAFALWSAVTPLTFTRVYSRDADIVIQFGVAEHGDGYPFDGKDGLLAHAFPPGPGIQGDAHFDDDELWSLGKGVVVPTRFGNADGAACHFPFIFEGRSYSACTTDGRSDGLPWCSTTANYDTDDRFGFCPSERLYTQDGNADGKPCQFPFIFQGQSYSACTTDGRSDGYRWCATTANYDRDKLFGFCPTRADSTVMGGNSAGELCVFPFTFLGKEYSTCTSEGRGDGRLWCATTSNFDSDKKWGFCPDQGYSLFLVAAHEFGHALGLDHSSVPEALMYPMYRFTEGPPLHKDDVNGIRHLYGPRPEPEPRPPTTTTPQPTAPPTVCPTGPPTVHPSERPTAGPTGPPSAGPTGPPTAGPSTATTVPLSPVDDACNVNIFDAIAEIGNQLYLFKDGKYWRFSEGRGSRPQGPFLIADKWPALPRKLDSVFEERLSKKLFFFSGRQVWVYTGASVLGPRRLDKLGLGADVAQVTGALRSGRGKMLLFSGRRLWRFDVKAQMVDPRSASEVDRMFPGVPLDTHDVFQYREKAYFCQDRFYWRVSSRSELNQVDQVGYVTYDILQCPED
Insulin receptor, sequence (P15127 27-759 limits assumed): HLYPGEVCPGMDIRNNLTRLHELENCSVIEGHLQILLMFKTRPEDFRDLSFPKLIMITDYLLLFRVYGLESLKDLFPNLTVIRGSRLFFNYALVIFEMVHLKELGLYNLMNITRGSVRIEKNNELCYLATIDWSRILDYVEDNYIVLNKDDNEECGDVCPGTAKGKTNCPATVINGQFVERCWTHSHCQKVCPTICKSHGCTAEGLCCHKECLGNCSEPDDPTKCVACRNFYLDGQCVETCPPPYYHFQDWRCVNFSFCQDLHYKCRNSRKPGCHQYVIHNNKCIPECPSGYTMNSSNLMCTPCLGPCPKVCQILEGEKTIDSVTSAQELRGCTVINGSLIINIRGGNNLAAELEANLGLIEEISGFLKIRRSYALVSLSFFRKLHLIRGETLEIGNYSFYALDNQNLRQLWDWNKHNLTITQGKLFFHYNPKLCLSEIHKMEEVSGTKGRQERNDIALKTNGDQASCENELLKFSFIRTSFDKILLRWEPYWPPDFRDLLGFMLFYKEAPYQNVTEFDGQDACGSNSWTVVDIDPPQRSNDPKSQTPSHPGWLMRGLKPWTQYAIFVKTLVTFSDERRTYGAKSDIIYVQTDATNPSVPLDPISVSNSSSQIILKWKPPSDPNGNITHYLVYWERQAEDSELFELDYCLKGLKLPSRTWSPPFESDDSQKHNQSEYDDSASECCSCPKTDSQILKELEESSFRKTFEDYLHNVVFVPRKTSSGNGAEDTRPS
Insulin receptor, sequence (P15127 764-1383 limits assumed): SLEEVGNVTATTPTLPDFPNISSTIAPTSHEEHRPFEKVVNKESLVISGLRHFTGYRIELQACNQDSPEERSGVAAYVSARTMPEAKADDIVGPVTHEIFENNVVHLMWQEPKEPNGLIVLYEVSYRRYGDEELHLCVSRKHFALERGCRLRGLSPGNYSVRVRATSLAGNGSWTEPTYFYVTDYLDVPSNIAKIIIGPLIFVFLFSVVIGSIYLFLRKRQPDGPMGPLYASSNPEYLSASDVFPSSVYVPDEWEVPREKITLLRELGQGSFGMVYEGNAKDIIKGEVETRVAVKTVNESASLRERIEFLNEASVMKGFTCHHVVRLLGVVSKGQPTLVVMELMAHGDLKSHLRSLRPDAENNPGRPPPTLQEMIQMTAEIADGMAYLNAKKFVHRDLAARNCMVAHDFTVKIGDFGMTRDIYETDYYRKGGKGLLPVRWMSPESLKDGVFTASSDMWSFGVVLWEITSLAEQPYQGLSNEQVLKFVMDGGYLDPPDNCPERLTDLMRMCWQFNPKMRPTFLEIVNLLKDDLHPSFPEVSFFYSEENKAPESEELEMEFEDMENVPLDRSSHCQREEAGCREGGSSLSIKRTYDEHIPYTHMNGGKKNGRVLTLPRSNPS
Cannabinoid receptor 1, sequence (P21554 whole entry): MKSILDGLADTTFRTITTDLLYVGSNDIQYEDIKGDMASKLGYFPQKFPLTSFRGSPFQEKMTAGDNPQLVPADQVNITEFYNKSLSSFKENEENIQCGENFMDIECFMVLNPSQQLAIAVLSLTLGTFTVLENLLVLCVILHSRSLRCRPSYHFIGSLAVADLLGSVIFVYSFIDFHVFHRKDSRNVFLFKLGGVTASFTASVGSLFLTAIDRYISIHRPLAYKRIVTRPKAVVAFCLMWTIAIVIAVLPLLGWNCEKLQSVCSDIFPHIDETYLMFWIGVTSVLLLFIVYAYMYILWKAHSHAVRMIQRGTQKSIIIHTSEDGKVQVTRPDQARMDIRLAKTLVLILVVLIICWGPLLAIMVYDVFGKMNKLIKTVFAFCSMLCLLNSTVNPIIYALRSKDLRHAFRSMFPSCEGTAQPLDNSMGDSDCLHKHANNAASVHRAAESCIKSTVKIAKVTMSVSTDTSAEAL
Substance-P receptor, sequence (P25103 whole entry): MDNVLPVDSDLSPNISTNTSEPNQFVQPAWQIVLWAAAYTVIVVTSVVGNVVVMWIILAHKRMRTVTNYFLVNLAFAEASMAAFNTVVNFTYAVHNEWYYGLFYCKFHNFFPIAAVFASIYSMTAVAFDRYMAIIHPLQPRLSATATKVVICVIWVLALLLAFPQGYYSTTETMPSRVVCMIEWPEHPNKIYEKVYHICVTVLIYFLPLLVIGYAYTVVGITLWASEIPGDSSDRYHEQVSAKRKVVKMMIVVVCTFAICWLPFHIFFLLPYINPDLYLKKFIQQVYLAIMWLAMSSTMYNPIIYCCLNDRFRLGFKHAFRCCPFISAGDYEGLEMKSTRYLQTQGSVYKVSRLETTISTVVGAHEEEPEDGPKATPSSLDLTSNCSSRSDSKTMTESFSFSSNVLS
Acetylcholinesterase, sequence (P22303 whole entry): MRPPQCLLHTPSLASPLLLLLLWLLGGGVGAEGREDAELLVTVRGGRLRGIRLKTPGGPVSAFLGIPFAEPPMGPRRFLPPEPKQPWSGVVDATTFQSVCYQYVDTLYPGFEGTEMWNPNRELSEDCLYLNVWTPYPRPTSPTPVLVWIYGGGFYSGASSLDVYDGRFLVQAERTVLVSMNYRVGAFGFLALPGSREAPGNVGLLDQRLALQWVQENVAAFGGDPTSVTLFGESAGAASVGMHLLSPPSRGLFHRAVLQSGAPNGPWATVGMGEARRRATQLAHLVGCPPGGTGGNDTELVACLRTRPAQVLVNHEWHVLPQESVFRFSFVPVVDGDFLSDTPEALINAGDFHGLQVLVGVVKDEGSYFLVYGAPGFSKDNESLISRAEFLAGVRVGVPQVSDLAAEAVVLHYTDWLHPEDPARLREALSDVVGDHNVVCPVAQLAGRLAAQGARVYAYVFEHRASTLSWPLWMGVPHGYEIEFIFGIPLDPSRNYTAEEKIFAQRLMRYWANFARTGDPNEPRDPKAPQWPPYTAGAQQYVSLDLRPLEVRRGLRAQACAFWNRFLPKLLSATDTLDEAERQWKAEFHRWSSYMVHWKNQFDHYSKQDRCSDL
Melanocortin receptor 4, sequence (P32245 whole entry): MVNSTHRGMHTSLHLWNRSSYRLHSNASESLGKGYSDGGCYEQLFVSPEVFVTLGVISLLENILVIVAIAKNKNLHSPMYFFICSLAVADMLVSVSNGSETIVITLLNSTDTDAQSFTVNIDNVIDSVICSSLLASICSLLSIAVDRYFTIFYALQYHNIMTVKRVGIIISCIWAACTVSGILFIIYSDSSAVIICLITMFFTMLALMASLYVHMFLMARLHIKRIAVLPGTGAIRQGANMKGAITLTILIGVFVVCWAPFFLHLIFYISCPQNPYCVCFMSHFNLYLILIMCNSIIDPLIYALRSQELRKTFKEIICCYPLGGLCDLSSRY
D(3) dopamine receptor, sequence (P35462 whole entry): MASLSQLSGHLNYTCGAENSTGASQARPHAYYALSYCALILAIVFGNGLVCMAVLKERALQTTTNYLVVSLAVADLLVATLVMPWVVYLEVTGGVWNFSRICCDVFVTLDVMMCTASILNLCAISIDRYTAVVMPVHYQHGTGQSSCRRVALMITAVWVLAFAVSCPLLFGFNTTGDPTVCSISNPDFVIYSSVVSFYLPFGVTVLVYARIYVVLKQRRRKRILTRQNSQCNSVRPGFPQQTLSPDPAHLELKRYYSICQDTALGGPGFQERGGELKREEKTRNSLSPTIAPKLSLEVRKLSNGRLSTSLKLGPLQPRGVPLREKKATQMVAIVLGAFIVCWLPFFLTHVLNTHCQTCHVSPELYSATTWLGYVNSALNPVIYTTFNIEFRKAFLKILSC

C=C1CC[C@H](O)C/C1=C/C=C1\CCC[C@]2(C)[C@@H]([C@H](C)/C=C/[C@H](C)C(C)C)CC[C@@H]12 [ERGOCALCIFEROL]
Not Active: IC50 [1] | Ki [1] | IC50 [2] | Ki [2] | IC50 [3] | Ki [3] | IC50 (Substance-P receptor) | IC50 (Cannabinoid receptor 1) | IC50 (D(3) dopamine receptor) | IC50 (Insulin receptor) | IC50 (Melanocortin receptor 4) | IC50 [4] | IC50 [5] | Ki [5] | IC50 [6] | Ki [6] | IC50 [7] | IC50 (Acetylcholinesterase) | IC50 (Adenosine receptor A3) | IC50 (Cytochrome P450 3A4) | Ki (Cytochrome P450 3A4)

CCc1cccc2c3c([nH]c12)C(CC)(CC(=O)O)OCC3 (configuration not stated) [ETODOLAC]
Not Active: IC50 [1] | Ki [1] | IC50 [2] | Ki [2] | IC50 [3] | Ki [3] | IC50 (Substance-P receptor) | IC50 (Cannabinoid receptor 1) | IC50 (D(3) dopamine receptor) | IC50 (Insulin receptor) | IC50 (Melanocortin receptor 4) | IC50 [4] | IC50 [5] | Ki [5] | IC50 [6] | Ki [6] | IC50 [7] | IC50 (Acetylcholinesterase) | IC50 (Adenosine receptor A3) | IC50 (Cytochrome P450 3A4) | Ki (Cytochrome P450 3A4)

Cc1c(-c2ccccc2)oc2c(C(=O)OCCN3CCCCC3)cccc2c1=O [FLAVOXATE]
Not Active: IC50 [1] | Ki [1] | IC50 [2] | Ki [2] | IC50 [3] | Ki [3] | IC50 (Substance-P receptor) | IC50 (Cannabinoid receptor 1) | IC50 (D(3) dopamine receptor) | IC50 (Insulin receptor) | IC50 (Melanocortin receptor 4) | IC50 [4] | IC50 [5] | Ki [5] | IC50 [6] | Ki [6] | IC50 [7] | IC50 (Acetylcholinesterase) | IC50 (Adenosine receptor A3) | IC50 (Cytochrome P450 3A4) | Ki (Cytochrome P450 3A4)

Nc1nc(=O)[nH]cc1F [FLUCYTOSINE]
Not Active: IC50 [1] | Ki [1] | IC50 [2] | Ki [2] | IC50 [3] | Ki [3] | IC50 (Substance-P receptor) | IC50 (Cannabinoid receptor 1) | IC50 (D(3) dopamine receptor) | IC50 (Insulin receptor) | IC50 (Melanocortin receptor 4) | IC50 [4] | IC50 [5] | Ki [5] | IC50 [6] | Ki [6] | IC50 [7] | IC50 (Acetylcholinesterase) | IC50 (Adenosine receptor A3) | IC50 (Cytochrome P450 3A4) | Ki (Cytochrome P450 3A4)

O=C1OC2(c3ccc(O)cc3Oc3cc(O)ccc32)c2ccccc21 [FLUORESCEIN]
Not Active: IC50 [1] | Ki [1] | IC50 [2] | Ki [2] | IC50 [3] | Ki [3] | IC50 (Substance-P receptor) | IC50 (Cannabinoid receptor 1) | IC50 (D(3) dopamine receptor) | IC50 (Insulin receptor) | IC50 (Melanocortin receptor 4) | IC50 [4] | IC50 [5] | Ki [5] | IC50 [6] | Ki [6] | IC50 [7] | IC50 (Acetylcholinesterase) | IC50 (Adenosine receptor A3) | IC50 (Cytochrome P450 3A4) | Ki (Cytochrome P450 3A4)

CC(=O)[C@@]1(O)CC[C@H]2[C@@H]3C[C@H](C)C4=CC(=O)C=C[C@]4(C)[C@@]3(F)[C@@H](O)C[C@@]21C [FLUOROMETHOLONE]
Not Active: IC50 [1] | Ki [1] | IC50 [2] | Ki [2] | IC50 [3] | Ki [3] | IC50 (Substance-P receptor) | IC50 (Cannabinoid receptor 1) | IC50 (D(3) dopamine receptor) | IC50 (Insulin receptor) | IC50 (Melanocortin receptor 4) | IC50 [4] | IC50 [5] | Ki [5] | IC50 [6] | Ki [6] | IC50 [7] | IC50 (Acetylcholinesterase) | IC50 (Adenosine receptor A3) | IC50 (Cytochrome P450 3A4) | Ki (Cytochrome P450 3A4)

O=c1[nH]cc(F)c(=O)[nH]1 [FLUOROURACIL]
Not Active: IC50 [1] | Ki [1] | IC50 [2] | Ki [2] | IC50 [3] | Ki [3] | IC50 (Substance-P receptor) | IC50 (Cannabinoid receptor 1) | IC50 (D(3) dopamine receptor) | IC50 (Insulin receptor) | IC50 (Melanocortin receptor 4) | IC50 [4] | IC50 [5] | Ki [5] | IC50 [6] | Ki [6] | IC50 [7] | IC50 (Acetylcholinesterase) | IC50 (Adenosine receptor A3) | IC50 (Cytochrome P450 3A4) | Ki (Cytochrome P450 3A4)
